Test results published in patent publication US20110294155A1, “MODULATION OF AN ION CHANNEL OR RECEPTOR” (Howard Florey Institute, priority 2008, published 2011).
“Also recorded” adds a separate entry of the source.

Target: skeletal muscle Nav1.4 sodium channels (Homo sapiens, UniProt P35499)
Experiment: Dynamic clamp whole cell assay of action potential firing at HEK cells expressing Nav1.4 sodium channels
Type: cell-based
Procedure: Twenty-four hours prior to experimentation, cells were dissociated using Versene (EDTA) and plated at 10-12% confluency onto coverslips. The following day the coverslips were placed into the recording chamber and held at 22-25° C. for the duration of the experiments.
Borosilicate glass pipettes (WPI) were used for the whole cell assay. These pipettes were filled with an intracellular solution containing (mM): 10 NaF, 110 CsF, 20 TEA.Cl, 2 ethylene glycol tetraacetic acid and 10 HEPES, with pH adjusted to 7.4 using CsOH and osmolarity adjusted to 310 mosmol/L with sucrose.
The bath solution contained in (mM): 141 NaCl, 4 KCl, 1.0 MgCl2, 1.8 CaCl2, 10 HEPES buffer, and 4 tetraethylammonium (TEA).Cl, with pH adjusted to 7.4 with NaOH and osmolarity adjusted to 310 mosmol/L with sucrose. Bath temperature was controlled using a Warner Instruments (Hamden, Conn.) controller (TC-344B) with inline solution and bath heating.
Electrophysiological recordings were made 10 minutes after establishing whole cell recording. Recordings were made on an EPC-9 patch clamp amplifier (Heka Instruments, Lambrecht, Germany) filtered at 14.4 kHz with >80% series resistance compensation and sampled at 50 kHz. The current monitor output from the EPC-9 was fed into the analogue input channel of a data acquisition card.
The model runs in polling mode using the ode5 fixed time step solver with a step size of 50 μS.
The dynamic clamp system was configured to account for leak conductance, and to also simulate the function of potassium channels, which were not present in the HEK cell.
Following attainment of a whole cell clamp in the HEK cell, a period of 10 minutes was allowed for diffusion of the pipette solution into the intracellular volume of the cell. During this period cells were held at −85 mV.
Control was transferred to the Simulink system and a range of current injections were trialled to achieve a steady state action potential firing of 50-100 Hz (FIG. 8). This firing was stable and continued as long as a stimulating current injection was maintained. […]

Chain of skeletal muscle Nav1.4 sodium channels (P35499 whole entry): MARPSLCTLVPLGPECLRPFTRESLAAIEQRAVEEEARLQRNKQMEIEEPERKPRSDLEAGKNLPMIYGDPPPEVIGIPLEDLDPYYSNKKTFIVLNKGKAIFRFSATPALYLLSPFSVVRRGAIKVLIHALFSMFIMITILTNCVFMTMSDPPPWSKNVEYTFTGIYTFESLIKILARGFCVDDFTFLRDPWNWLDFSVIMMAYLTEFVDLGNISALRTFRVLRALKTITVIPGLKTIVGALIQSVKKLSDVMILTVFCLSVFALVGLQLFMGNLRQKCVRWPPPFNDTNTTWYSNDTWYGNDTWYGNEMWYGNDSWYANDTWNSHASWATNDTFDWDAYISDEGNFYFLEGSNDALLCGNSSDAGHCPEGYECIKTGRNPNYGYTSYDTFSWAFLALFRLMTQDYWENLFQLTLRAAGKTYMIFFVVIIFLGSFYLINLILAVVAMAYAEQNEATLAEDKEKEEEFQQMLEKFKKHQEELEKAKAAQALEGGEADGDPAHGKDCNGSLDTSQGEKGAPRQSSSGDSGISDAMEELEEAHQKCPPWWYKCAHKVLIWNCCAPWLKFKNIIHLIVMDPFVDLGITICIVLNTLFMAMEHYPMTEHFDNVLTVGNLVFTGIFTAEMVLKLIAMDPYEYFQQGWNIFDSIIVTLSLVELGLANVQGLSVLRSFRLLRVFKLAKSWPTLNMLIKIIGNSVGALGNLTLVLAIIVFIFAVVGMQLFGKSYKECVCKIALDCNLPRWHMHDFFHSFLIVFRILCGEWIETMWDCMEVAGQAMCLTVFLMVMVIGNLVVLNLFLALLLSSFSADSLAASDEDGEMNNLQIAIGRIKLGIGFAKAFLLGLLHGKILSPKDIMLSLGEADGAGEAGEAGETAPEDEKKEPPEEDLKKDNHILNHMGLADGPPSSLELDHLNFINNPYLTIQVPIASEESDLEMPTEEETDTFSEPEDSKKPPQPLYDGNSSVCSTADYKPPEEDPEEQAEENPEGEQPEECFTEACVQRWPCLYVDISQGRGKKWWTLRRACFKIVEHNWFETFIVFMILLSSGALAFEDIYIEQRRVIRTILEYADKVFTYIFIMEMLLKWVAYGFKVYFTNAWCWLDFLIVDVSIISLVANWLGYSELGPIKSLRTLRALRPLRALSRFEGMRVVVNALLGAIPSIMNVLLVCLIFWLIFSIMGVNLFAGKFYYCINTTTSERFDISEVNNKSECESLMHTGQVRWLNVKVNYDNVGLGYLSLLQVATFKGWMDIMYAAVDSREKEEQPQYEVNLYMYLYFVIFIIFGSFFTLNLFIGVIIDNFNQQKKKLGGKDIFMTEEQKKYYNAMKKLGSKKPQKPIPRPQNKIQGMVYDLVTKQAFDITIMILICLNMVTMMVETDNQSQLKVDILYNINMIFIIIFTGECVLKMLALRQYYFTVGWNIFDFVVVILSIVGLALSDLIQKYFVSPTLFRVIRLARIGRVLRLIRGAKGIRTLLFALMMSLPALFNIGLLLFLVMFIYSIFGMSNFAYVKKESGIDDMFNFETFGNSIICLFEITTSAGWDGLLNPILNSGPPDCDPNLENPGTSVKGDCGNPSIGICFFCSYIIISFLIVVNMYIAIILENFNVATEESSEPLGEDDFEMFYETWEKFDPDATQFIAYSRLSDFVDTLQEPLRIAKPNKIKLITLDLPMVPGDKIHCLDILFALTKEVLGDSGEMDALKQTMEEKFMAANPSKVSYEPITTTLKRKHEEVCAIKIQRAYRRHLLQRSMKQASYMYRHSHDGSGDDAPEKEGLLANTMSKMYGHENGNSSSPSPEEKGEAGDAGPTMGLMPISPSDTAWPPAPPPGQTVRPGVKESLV

With `NC(=O)N1c2ccccc2C=Cc2ccccc21` [carbamazepine] the “action potential firing rate” value (50 μM in bath solution perfused onto HEK cells expressing Nav1.4, steady state firing of 50-100 Hz before compound) was “decreased the action potential firing rate; also recorded: decrease in action potential firing rate” and the “number of action potentials elicited by a stimulating current step” value (continued presence of 50 μM, HEK cells expressing Nav1.4, no further firing would occur) was 2-3.
